Test results as given in PubChem BioAssay (NCI).
Several values for one entry are separate records, joined by “and”; a condition that tells them apart may be missing. Identical values can stand only once.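 Assay format: 96-well plates, 48-hour exposure. Here, GI50 denotes the concentration required for 50% inhibition of growth. TGI: concentration producing complete growth inhibition.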

Key:
Test in all cases: inhibition of tumour cell growth, NCI panel, 48 h
[1] = tested on: 786-0 renal
[2] = tested on: EKVX NSCLC
[3] = tested on: HCT-116 colon
[4] = tested on: KM12 colon
[5] = tested on: NCI-H226 lung
[6] = tested on: OVCAR-3 ovarian
[7] = tested on: OVCAR-4 ovarian
[8] = tested on: SNB-75 CNS
[9] = tested on: SW-620 colon
[10] = tested on: SK-MEL-5 melanoma

CCOC(=O)C1C(c2ccc(Br)cc2)N(Cc2ccccc2)C(c2ccc(Br)cc2)C(C(=O)OC)S1(=O)=O (stereo unspecified)
TGI [1]: > 100 µM
TGI [2]: > 100 µM
TGI [3]: > 100 µM
TGI [4]: > 100 µM
TGI [5]: > 100 µM
TGI [6]: > 100 µM
TGI [7]: > 100 µM
TGI [8]: 57.3 µM
TGI [9]: > 100 µM

CC(C)(C)C1=NO[C@H]2[C@@H](NC(=O)c3ccccc3)CC[C@@H]12
TGI [1]: > 100 µM
TGI [3]: > 100 µM
TGI [4]: > 100 µM
TGI [5]: > 100 µM
TGI [6]: > 100 µM
TGI [7]: > 100 µM
TGI [10]: > 100 µM
TGI [8]: > 100 µM
TGI [9]: > 100 µM

N#Cc1c(-c2ccccc2)c(-c2ccccc2)cc2c(=O)c3ccc(Cl)cc3[nH]c12
TGI [1]: > 100 µM
TGI [2]: > 100 µM
TGI [3]: > 100 µM
TGI [5]: > 100 µM
TGI [6]: > 100 µM
TGI [8]: > 100 µM
TGI [9]: > 100 µM

Cc1nc2ccncc2[nH]1
TGI [1]: > 100 µM
TGI [2]: > 100 µM
TGI [3]: > 100 µM
TGI [5]: > 100 µM
TGI [6]: > 100 µM
TGI [7]: > 100 µM
TGI [10]: > 100 µM
TGI [8]: > 100 µM
TGI [9]: > 100 µM

COc1ccc([C@@]23Oc4cc(OC)cc(OC)c4[C@]2(O)[C@H](O)[C@H](C(=O)N(C)C)[C@H]3c2ccccc2)cc1
GI50 [1]: 0.0287 µM
TGI [1]: 0.159 µM and 0.0333 µM and 0.215 µM
TGI [2]: 0.22 µM and 0.17 µM
TGI [4]: 0.0892 µM and 0.281 µM
GI50 [6]: 0.0164 µM
GI50 [7]: 0.0149 µM
GI50 [10]: 0.0227 µM
TGI [10]: 0.0144 µM and 0.139 µM
GI50 [8]: 0.0149 µM
TGI [9]: 1.02 µM and 0.26 µM and 0.244 µM

N#Cc1ccccc1Sc1ccccc1N
TGI [1]: > 100 µM
TGI [2]: > 100 µM
TGI [4]: > 100 µM
TGI [5]: 71.6 µM
TGI [7]: > 100 µM
TGI [10]: 77.3 µM
TGI [9]: > 100 µM
